Test results published in patent publication US9169285B2, “Methods for purifying steviol glycosides and uses of the same” (The Coca-Cola Company, priority 2011, dated 2015).
Entries after “also recorded” stand apart in the source; their conditions may differ. One block for each compound: values may come before it.

Columns and labels:
one experienced panelist = assay: Taste evaluation of Reb X against Reb A and Reb D, controlled multi-sip and swallow taste method; assay type: in vivo, human; settings: for Taste Properties: 500 ppm in citric buffer (pH 3.22)
Method: The taste properties of a sample of Reb X were studied against Rebaudioside A (Reb A) and Rebaudioside D (Reb D) samples. Reb A was obtained from Cargill (lot #1040) and Reb-D was obtained from PureCircle (lot #Nov. 3, 2008).
The samples were prepared at 500 ppm for sweetness evaluation by adding moisture compensated mass into a 100 mL sample of carbon-treated water and citric buffer solutions.
(§1) Citric buffer was prepared by mixing 1.171 g/L citric acid, 0.275 g/L sodium citrate and 0.185 g/L sodium benzoate with carbon-treated water, with a final pH of 3.22. The mixtures were moderately stirred at room temperature. The Reb X sample was then evaluated against the two control Reb A and Reb D samples in water and citric buffer at room temperature (RT) and at 4° C. in an ice bath by one experienced panelist for any tasting quality determinations using the controlled, multi-sip and swallow taste method shown below:
1. Take first sip (˜1.8 mL) of control and swallow. Wait for 15-25 sec, then take second sip of control and wait for 15-25 sec.
2. Take first sip of the experimental sample, wait for 15-25 sec, then take second sip. Compare to second sip of control.
3. Repeat steps #1 and #2 for the third and fourth sips of the control and experimental samples to confirm the initial finding.

panelists = assay: Sensory properties of steviol glycosides in acidified water (pH 3.0) at 500 mg/L, 20 panelists; assay type: in vivo, human; settings: for Overall evaluation: Satisfactory, number of panelists / Quality of sweet taste (comment) / Quality of sweet taste: number of panelists giving the comment / Astringent taste: number of panelists detected the attribute / Bitter taste: number of panelists detected the attribute / Licorice taste: number of panelists detected the attribute / Sweet Aftertaste: number of panelists detected the attribute: 500 ppm (sucrose 10,000 ppm); for Astringent taste: number of panelists detected the attribute / Bitter taste: number of panelists detected the attribute / Licorice taste: number of panelists detected the attribute / Sweet Aftertaste: number of panelists detected the attribute: acidified water pH 3.0 by phosphoric acid, 20 panelists
Method: The sensory properties of Reb X were evaluated in acidified water (pH 3.0 by phosphoric acid) at 500 mg/L concentration by 20 panelists.

one experienced taster = assay: Isosweetness determination of Reb X in citric buffer against sucrose controls; assay type: in vivo, human
Method: (§2) The isosweetness levels of Reb X in a citric buffer system at room temperature and 4° C. were evaluated. A 600 ppm stock solution of Reb X was prepared by adding a mass of 0.15 g into a 250 mL sample of citric buffer (CB) solution. The mixture was moderately stirred at warmer temperature (up to ca. 52° C.) on a heated stirrer for about 15-20 minutes and then cooled. The citric buffer was prepared by adding 1.6 g citric acid, 0.6 g potassium citrate and 0.253 g sodium benzoate in 1 L of carbon-treated water. The pH of the mixture was 3.1. Seven diluted Reb X solutions at […], 25, 50, 100, 200, 300, 400 and 500 ppm were prepared by adding a 2.08, 4.17, 8.33, 16.67, 25.00, 33.33 and 41.67 mL Reb X stock solution, respectively, into each 50 mL solution of CB. The controls of 0.75%, 2%, 4%, 6%, 8%, 10% and 15% sucrose equivalence (SE) were also prepared by adding sugar (w/v) into the CB. The mixtures were moderately stirred and then ready for the isosweetness determination test. The Reb X samples were then evaluated against the control sugar samples in citric buffer at room temperature (RT) and 4° C. (in an ice bath) by one experienced taster for an isosweetness determination using the controlled, multi-sip and swallow taste method.

panel of trained tasters = assay: Reb X sweetness vs. concentration, matched to sucrose reference solutions; assay type: in vivo, human; settings: Sweetness Equivalent (SE) 2.5%; Reb X 98% purity; water, room temperature
Method: 2.5%, 5.0%, 7.5%, and 10.0% sucrose solutions were prepared in neutral (7.0 pH) and acidified water (3.2 pH) as reference samples. Solutions containing Reb X (98% purity) were prepared to match the sweetness of each sucrose reference in neutral and acidified water. Samples were tasted and verified by a panel of trained tasters in water at room temperature.

[1] = Solubility of the Reb X stock solution in citric buffer; assay type: physicochemical; settings: Reb X 0.06% (w/v) in citric buffer, up to 52° C., ca. 15-20 minutes
Method: as §2

[2] = Solubility studies of Reb X in carbon-treated water and citrate buffer; assay type: physicochemical
Method: as §1
The samples used to evaluate the taste properties in Example 2 were also used for solubility studies.

[3] = test system: semi-trained panel members; assay: Sensory comparison of Reb X and Reb A, iso-sweet samples of 8% sucrose equivalent sweetness; assay type: in vivo, human
Method: To compare the sensory attributes between Reb X and Reb A, iso-sweet samples having 8% sucrose equivalent sweetness were made with filtered water as shown in Table 8. An 8% sugar solution in water at room temperature was used as a control. An 8% sugar solution in the acidified solution was used as the control. The samples prepared with filtered water were evaluated by 34 semi-trained panel members at room temperature. The samples prepared with acidified water were evaluated by 23 semi-trained panel members at room temperature. Samples were given to the panel members sequentially and coded with triple digit numbers. The order of sample presentation was randomized to avoid order of presentation bias. Water and unsalted crackers were provided in order to cleanse the palate. The panel members were asked to rate different attributes including sweetness onset, total sweetness, rounded sweetness, bitterness, acidity, leafy note, licorice, astringency, mouthfeel, mouth coating, sweet lingering, and bitter lingering. Samples were rated on a scale of zero (0) to ten (10), with zero indicating immediate onset, no intensity, watery/low viscosity, or very sharp peak, and ten indicating very delayed onset, high intensity, thick/high viscosity, or very round peak. One-way single factor ANOVA was used to analyze sensory results, where α=0.05.

[4] = Taste comparison of Reb X and Reb A in beverage formulations; assay type: in vivo
[5] = acidified water pH 3.0, 20 panelists

SMILES: C=C1C[C@@]23CC[C@H]4[C@@](C)(CCC[C@@]4(C)C(=O)O[C@@H]4O[C@H](CO)[C@@H](O)[C@H](O)[C@H]4O)[C@@H]2CC[C@]1(O[C@@H]1O[C@H](CO)[C@@H](O)[C@H](O[C@@H]2O[C@H](CO)[C@@H](O)[C@H](O)[C@H]2O)[C@H]1O[C@@H]1O[C@H](CO)[C@@H](O)[C@H](O)[C@H]1O)C3 [Reb A, Rebaudioside A]
Taste Properties (one experienced panelist; 4° C.): more sweet | Taste Properties (one experienced panelist; room temperature): Delayed sweetness onset, significant lingering sweet | Overall evaluation: Satisfactory, number of panelists (panelists; [5]): (1 of 20) | Quality of sweet taste (comment) (panelists; [5]): Bitter | Quality of sweet taste: number of panelists giving the comment (panelists; [5]): (20 of 20) | Astringent taste: number of panelists detected the attribute (panelists): 20 | Bitter taste: number of panelists detected the attribute (panelists): 20 | Licorice taste: number of panelists detected the attribute (panelists): 20 | Sweet Aftertaste: number of panelists detected the attribute (panelists): 20

SMILES: C=C1C[C@@]23CC[C@H]4[C@@](C)(CCC[C@@]4(C)C(=O)O[C@@H]4O[C@H](CO)[C@@H](O)[C@H](O)[C@H]4O[C@@H]4O[C@H](CO)[C@@H](O)[C@H](O)[C@H]4O)[C@@H]2CC[C@]1(O[C@@H]1O[C@H](CO)[C@@H](O)[C@H](O[C@@H]2O[C@H](CO)[C@@H](O)[C@H](O)[C@H]2O)[C@H]1O[C@@H]1O[C@H](CO)[C@@H](O)[C@H](O)[C@H]1O)C3 [Reb D, Rebaudioside D]
Taste Properties (one experienced panelist; 4° C.): more sweet | Overall evaluation: Satisfactory, number of panelists (panelists; [5]): (11 of 20) | Quality of sweet taste (comment) (panelists; [5]): Clean | Quality of sweet taste: number of panelists giving the comment (panelists; [5]): 9 of 20 | Astringent taste: number of panelists detected the attribute (panelists): 3 | Bitter taste: number of panelists detected the attribute (panelists): 3 | Licorice taste: number of panelists detected the attribute (panelists): 2 | Sweet Aftertaste: number of panelists detected the attribute (panelists): 5

Solubility and appearance [1]: very soluble and clear (colorless) | Estimated time to solubilize ([2]; Reb X 0.01% in carbon-treated water): 15 min | Estimated time to solubilize ([2]; Reb X 0.01% in citrate buffer): 25 min | Estimated time to solubilize ([2]; Reb X 0.02% in carbon-treated water): 25 min | Estimated time to solubilize ([2]; Reb X 0.02% in citrate buffer): 25 min | Estimated time to solubilize ([2]; Reb X 0.04% in carbon-treated water): 33 min | Estimated time to solubilize ([2]; Reb X 0.04% in citrate buffer): 35 min | Estimated time to solubilize ([2]; Reb X 0.05% in carbon-treated water): 39 min | Estimated time to solubilize ([2]; Reb X 0.05% in citrate buffer): 42 min | Estimated time to solubilize ([2]; Reb X 0.075% in carbon-treated water): 55 min | Estimated time to solubilize ([2]; Reb X 0.075% in citrate buffer): 55 min | Estimated time to solubilize ([2]; Reb X 0.10% in carbon-treated water): 106 min | Estimated time to solubilize ([2]; Reb X 0.10% in citrate buffer): 106 min | Estimated time to solubilize ([2]; Reb X 0.15% in carbon-treated water): Insoluble after 20 hours | Estimated time to solubilize ([2]; Reb X 0.15% in citrate buffer): Insoluble after 20 hours
SMILES: C=C1C[C@@]23CCC4[C@](C)(C(=O)OC5OC(CO)C(O)C(OC6OC(CO)C(O)C(O)C6O)C5OC5OC(CO)C(O)C(O)C5O)CCC[C@@]4(C)[C@@H]2CCC1(OC1OC(CO)C(O)C(OC2OC(CO)C(O)C(O)C2O)C1OC1OC(CO)C(O)C(O)C1O)C3 (stereo partly drawn) [Reb X, 13-[(2-O-β-D-glucopyranosyl-3-O-β-D-glucopyranosyl-β-D-glucopyranosyl)oxy]ent kaur-16-en-19-oic acid-[(2-O-β-D-glucopyranosyl-3-O-β-D-glucopyranosyl-β-D-glucopyranosyl)ester]]
Off-flavors (one experienced taster; Reb X 12.5-600 ppm in citric buffer at 4° C.): No off-flavors at any Reb X concentrations in CB at 4 °C were detected, except at least ca. 300 ppm which noticeably had a longer sweetness lingering | Sweetness intensity difference between RT and 4° C. (one experienced taster; Reb X concentration range, direct comparison with control sucrose at similar temperatures): no significant sweetness intensity difference between RT and 4 °C | Sweetness tasting quality (one experienced taster; all Reb X concentrations (12.5-600 ppm), citric buffer): pleasant sweetness tasting quality with a slight delay of sweetness onset and no bitterness | Reb X Concentration matching the sucrose reference (panel of trained tasters): 48 ppm | Taste Properties (one experienced panelist; room temperature): temporal profile and quality similar to sucrose; also recorded: Clean sweet taste. Broad and full sweetness profile; also recorded: Moderate sweetness linger aftertaste similar to aspartame | Astringency, sweetness depth and bitterness notes (one experienced panelist; 500 ppm, citrate buffer system, compared with Reb A): did not have the astringency or sweetness intense (depth) and bitterness notes compared to that of the Reb A | Taste quality compared with Reb A and Reb D (one experienced panelist; 500 ppm, citric buffer): much better than Reb A or Reb D | Tasting quality, temporal profile and sweetness linger (one experienced panelist; 500 ppm, citric buffer, compared with Reb A): did not display a pure sugar-like tasting quality but rather contained a fatty-like or broader sweet temporal profile and less sweetness linger than that of Reb A | Solubility, initial solubility test ([2]; 500 ppm in citrate buffer, compared with Reb D and Reb A): similar, limited but significantly greater solubility than that of Reb D and significantly less solubility than Reb A | Quality of sweet taste (comment) (panelists; [5]): Clean | Taste profile compared with known steviol glycosides (panelists; 500 ppm, acidified water pH 3.0, 20 panelists): superior taste profile to already known steviol glycosides | Sweetness onset, non-sweet taste and bitterness lingering compared with Reb A ([3]; acidified water (250 ppm citric acid, pH 3.2), 23 panel members, FIG. 12): faster sweetness onset, reduced non-sweet taste (bitterness, sour, astringency) and bitterness lingering | Sweetness compared with Reb A ([3]; acidified water (250 ppm citric acid, pH 3.2), Reb X 0.0423% vs Reb A 0.0510%, 23 panel members, FIG. 12): perception of higher sweetness of Reb X over Reb A is significant | Bitterness, astringency and bitter lingering compared with Reb A ([3]; filtered water, Reb X 0.0423% vs Reb A 0.0510%, 34 panel members, scale 0-10, FIG. 11): reduced perception of bitterness, astringency and bitter lingering compared to Reb A | Taste properties compared with Reb A drink ([4]; flavored zero calorie black tea drink, 250 ppm): much cleaner in finish with less sweetness linger and a more rounded overall sweetness profile | Taste properties compared with Reb A drink ([4]; zero calorie enhanced water drink, 200 ppm): cleaner in finish and had reduced sweetness linger and a more rounded overall sweetness taste quality | Reb X level closest in sweetness level to a 11.5 Brix high fructose corn syrup sweetened orange flavored sparkling beverage ([4]; zero calorie orange-flavored sparkling beverage base): 500 ppm | Taste compared with Reb A-containing formulations ([4]; zero calorie orange-flavored sparkling beverage, Reb X 400 to 750 ppm in 50 ppm increments): tasted significantly better than comparable Reb A-containing formulations

SMILES: C=C1C[C@@]23CC[C@H]4[C@@](C)(CCC[C@@]4(C)C(=O)O[C@@H]4O[C@H](CO)[C@@H](O)[C@H](O)[C@H]4O)[C@@H]2CC[C@]1(O[C@@H]1O[C@H](CO)[C@@H](O)[C@H](O)[C@H]1O[C@@H]1O[C@H](CO)[C@@H](O)[C@H](O)[C@H]1O)C3 [Stevioside]
Quality of sweet taste (comment) (panelists; [5]): Bitter | Quality of sweet taste: number of panelists giving the comment (panelists; [5]): (20 of 20)

SMILES: OC[C@H]1O[C@@](CO)(O[C@H]2O[C@H](CO)[C@@H](O)[C@H](O)[C@H]2O)[C@@H](O)[C@@H]1O [Sucrose]
Overall evaluation: Satisfactory, number of panelists (panelists; [5]): (20 of 20) | Quality of sweet taste (comment) (panelists; [5]): Clean | Quality of sweet taste: number of panelists giving the comment (panelists; [5]): 20 of 20
